From US9023821B2, “Use of MicroRNA for treating diseases associated with a dysfunction of the cilia in multiciliated epithelial cells” (Centre National de la Recherche Scientifique, priority 2009, dated 2015)

Key:
[1] = system: basal cells and pyramidal cells of the airway epithelium; assay: miRNA expression in sorted basal cells versus pyramidal cells (ciliated + secretory), HTS and Agilent chips; parameters: species or system human; conditions: for Modulation of expression of the miRNAs in pyramidal cells (323(−)) relative to basal cells 323(+): HTS and Agilent chips; for Intensity of the level of expression in log2 in pyramidal cells (323(−)): pyramidal cells (ciliated + secretory)
In short: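 Epithelium dissociated from nasal polyps is held 30 min in PBS-BSA-EDTA, then labelled 20 min at 4° C for CD151 and tissue factor. After DAPI staining, live single cells are sorted into marker-double-positive and double-negative fractions, and sort purity and identity are verified. Total RNA then undergoes miRNA profiling on arrays or by sequencing.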

[2] = system: human airway epithelial cells (HAECs); assay: Agilent miRNA chips, miRNA expression at four stages of differentiation of HAECs; conditions: for Modulation (ratio of the level of intensity of expression in log2 in two stages of differentiation) measured with the Agilent chips, D7 − D0 / Modulation (ratio of the level of intensity of expression in log2 in two stages of differentiation) measured with the Agilent chips, FC − D7 / Modulation (ratio of the level of intensity of expression in log2 in two stages of differentiation) measured with the Agilent chips, WD − D0 / Modulation (ratio of the level of intensity of expression in log2 in two stages of differentiation) measured with the Agilent chips, WD − FC / Level of intensity of expression in log2 measured with the Agilent chips, D0 / Level of intensity of expression in log2 measured with the Agilent chips, D7 / Level of intensity of expression in log2 measured with the Agilent chips, FC / Level of intensity of expression in log2 measured with the Agilent chips, WD: Table VI; for Modulation (ratio of the level of intensity of expression in log2 at two stages of differentiation), FC − D7 / Modulation (ratio of the level of intensity of expression in log2 at two stages of differentiation), WD − FC: Agilent miRNA chips, Table V; for Level of intensity of expression in log2 measured with the Agilent chips, D0: stage D0; for Level of intensity of expression in log2 measured with the Agilent chips, D7: stage D7; for Level of intensity of expression in log2 measured with the Agilent chips, FC: stage FC; for Level of intensity of expression in log2 measured with the Agilent chips, WD: stage WD
In short: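 Expression was profiled on Human miRNA Microarray v2 chips covering 866 human and 89 human viral miRNAs from miRBase v12.0. Labelled HAEC RNA came from the same patients used for sequencing and was hybridized per kit protocol. Chip and sequencing results were compared.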

[3] = system: human airway epithelial cells (HAECs); assay: High-throughput sequencing (HTS) of miRNAs at four stages of differentiation of HAECs; conditions: for Modulation (ratio of the level of intensity of expression in log2 in two stages of differentiation) measured by high-throughput sequencing, D7 − D0 / Modulation (ratio of the level of intensity of expression in log2 in two stages of differentiation) measured by high-throughput sequencing, FC − D7 / Modulation (ratio of the level of intensity of expression in log2 in two stages of differentiation) measured by high-throughput sequencing, WD − D0 / Modulation (ratio of the level of intensity of expression in log2 in two stages of differentiation) measured by high-throughput sequencing, WD − FC / Level of intensity of expression in log2 measured by high-throughput sequencing, D0 / Level of intensity of expression in log2 measured by high-throughput sequencing, D7 / Level of intensity of expression in log2 measured by high-throughput sequencing, FC / Level of intensity of expression in log2 measured by high-throughput sequencing, WD: Table VI; for Level of intensity of expression in log2 At the differentiated stage (WD) measured in HTS: healthy human airway epithelial tissue; for Level of intensity of expression in log2 measured by high-throughput sequencing, D0: stage D0; for Level of intensity of expression in log2 measured by high-throughput sequencing, D7: stage D7; for Level of intensity of expression in log2 measured by high-throughput sequencing, FC: stage FC; for Level of intensity of expression in log2 At the differentiated stage (WD) measured in HTS / Level of intensity of expression in log2 measured by high-throughput sequencing, WD: stage WD
In short: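 Small-RNA libraries from differentiating HAECs (ALI-D0 to ALI-WD) were built by ligation-based SOLiD chemistry, size-selected and sequenced. Strand counts were normalized per million reads, converted to percentage abundance, and filtered on adjusted P-value below 0.05.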

Substance	Modulation of expression of the miRNAs in pyramidal cells (323(−)) relative to basal cells 323(+) [1]	Intensity of the level of expression in log2 in basal cells (323(+)) [1] [log2]	Intensity of the level of expression in log2 in pyramidal cells (323(−)) [1] [log2]	Modulation (ratio of the level of intensity of expression in log2 in two stages of differentiation) measured with the Agilent chips, D7 − D0 [2] [log2]	Modulation (ratio of the level of intensity of expression in log2 in two stages of differentiation) measured with the Agilent chips, FC − D7 [2] [log2]	Modulation (ratio of the level of intensity of expression in log2 in two stages of differentiation) measured with the Agilent chips, WD − D0 [2] [log2]	Modulation (ratio of the level of intensity of expression in log2 in two stages of differentiation) measured with the Agilent chips, WD − FC [2] [log2]	Level of intensity of expression in log2 measured with the Agilent chips, D0 [2] [log2]	Level of intensity of expression in log2 measured with the Agilent chips, D7 [2] [log2]	Level of intensity of expression in log2 measured with the Agilent chips, FC [2] [log2]	Level of intensity of expression in log2 measured with the Agilent chips, WD [2] [log2]	Modulation (ratio of the level of intensity of expression in log2 in two stages of differentiation) measured by high-throughput sequencing, D7 − D0 [3] [log2]	Modulation (ratio of the level of intensity of expression in log2 in two stages of differentiation) measured by high-throughput sequencing, FC − D7 [3] [log2]	Modulation (ratio of the level of intensity of expression in log2 in two stages of differentiation) measured by high-throughput sequencing, WD − D0 [3] [log2]	Modulation (ratio of the level of intensity of expression in log2 in two stages of differentiation) measured by high-throughput sequencing, WD − FC [3] [log2]	Level of intensity of expression in log2 At the differentiated stage (WD) measured in HTS [3] [log2]	Level of intensity of expression in log2 measured by high-throughput sequencing, D0 [3] [log2]	Level of intensity of expression in log2 measured by high-throughput sequencing, D7 [3] [log2]	Level of intensity of expression in log2 measured by high-throughput sequencing, FC [3] [log2]	Level of intensity of expression in log2 measured by high-throughput sequencing, WD [3] [log2]	also measured
hsa-miR-151-5p: human miRNA, SEQ ID No. 8 (UCGAGGAGCUCACAGUCUAGU; expressed or natural sequence; listed as Homo sapiens)	−0.73	7.24	6.51	1.83	−0.37	1.46	0.00	6.71	8.54	8.17	8.17	1.13	−0.02	1.02	−0.09	10.22	9.20	10.33	10.31	10.22	Modulation (ratio of the level of intensity of expression in log2 at two stages of differentiation), FC − D7 [2]: −0.37 log2; Modulation (ratio of the level of intensity of expression in log2 at two stages of differentiation), WD − FC [2]: 0.00 log2
hsa-miR-181a: human miRNA, SEQ ID No. 12 (AACAUUCAACGCUGUCGGUGAGU; expressed or natural sequence; listed as Homo sapiens)	−2.29	6.88	4.59	1.41	−0.84	0.20	−0.37	7.05	8.47	7.62	7.25	0.00	0.00	0.00	0.00	0.01	0.01	0.01	0.01	0.01	Modulation (ratio of the level of intensity of expression in log2 at two stages of differentiation), FC − D7 [2]: −0.84 log2; Modulation (ratio of the level of intensity of expression in log2 at two stages of differentiation), WD − FC [2]: −0.37 log2
hsa-miR-191: human miRNA, SEQ ID No. 13 (CAACGGAAUCCCAAAAGCAGCUG; expressed or natural sequence; listed as Homo sapiens)	0.00	0.14	0.14	2.32	0.29	2.31	−0.30	0.64	2.97	3.25	2.95	0.90	0.84	2.15	0.42	16.82	14.67	15.57	16.40	16.82	Modulation (ratio of the level of intensity of expression in log2 in two stages of differentiation), D7 − D0 ([3]; HTS): 0.90 log2; Modulation (ratio of the level of intensity of expression in log2 in two stages of differentiation), FC − D7 ([3]; HTS): 0.84 log2; Modulation (ratio of the level of intensity of expression in log2 in two stages of differentiation), WD − FC ([3]; HTS): 0.42 log2; Abundance (%), D0 ([3]; HTS, ALI-D0): 5.71%; Abundance (%), D7 ([3]; HTS, ALI-D7): 10.68%; Abundance (%), FC ([3]; HTS, ALI-FC): 18.46%; Abundance (%), WD ([3]; HTS, ALI-WD): 18.69%
